Results on five molecules are retold here after US20110195900A1, “PEPTIDIC PTH RECEPTOR AGONISTS” (FERRING B.V., priority 2008, published 2011).

Read-outs that look alike come from different tables or passages of the source. Non-standard residues stand in square brackets, D forms with d. Residues, ends and D or L forms follow the SMILES beside them. 1Nal = N[C@@H](Cc1cccc2ccccc12)C(=O)O; 2Nal = N[C@@H](Cc1ccc2ccccc2c1)C(=O)O; β3hI = CC[C@H](C)[C@H](N)CC(=O)O; Nle = CCCC[C@H](N)C(=O)O; Aib = CC(C)(N)C(=O)O; βAla = NCCC(=O)O

One experiment concerns the target T1, human PTH-1 receptor (Homo sapiens, UniProt Q03431).
T1 construct: expressed in transfected cells; host or cells: HEK-293
T1 sequence (Q03431 27-593): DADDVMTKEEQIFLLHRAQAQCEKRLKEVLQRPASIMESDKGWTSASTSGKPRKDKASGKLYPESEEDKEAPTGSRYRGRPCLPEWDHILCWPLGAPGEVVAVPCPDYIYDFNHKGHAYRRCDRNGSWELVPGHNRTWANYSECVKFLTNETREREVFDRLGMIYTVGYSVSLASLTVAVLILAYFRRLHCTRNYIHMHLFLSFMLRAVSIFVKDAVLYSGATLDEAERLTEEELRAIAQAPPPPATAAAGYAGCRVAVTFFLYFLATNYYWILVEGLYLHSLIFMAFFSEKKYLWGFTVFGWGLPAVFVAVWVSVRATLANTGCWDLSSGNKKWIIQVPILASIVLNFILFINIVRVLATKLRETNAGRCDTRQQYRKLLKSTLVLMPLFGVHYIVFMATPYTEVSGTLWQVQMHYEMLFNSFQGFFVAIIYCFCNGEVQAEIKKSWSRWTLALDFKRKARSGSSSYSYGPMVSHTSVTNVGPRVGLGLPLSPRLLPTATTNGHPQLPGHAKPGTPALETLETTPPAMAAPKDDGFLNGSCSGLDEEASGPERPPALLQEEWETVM
Kind of experiment: Reporter gene assay (CRE-luciferase) for agonist activity in transiently transfected HEK-293 cells. Format: cell-based. The settings on record: for hPTHR-2/hPTHR-1 / Selectivity hPTHR-2/hPTHR-1: ratio of EC50 values; for hPTHR-2/hPTHR-1: selectivity for hPTH-1 receptor over hPTH-2 receptor; for Selectivity hPTHR-2/hPTHR-1: Table 4 comparison data. In a few lines:
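Selectivity came from luciferase transcriptional reporter assays expressing human PTH-2 receptor. PTH-1 agonism used transiently transfected HEK-293 cells carrying SV40-promoter receptor and cAMP-responsive-element luciferase; 4-5 h compound exposure, lysis, luminescence, non-linear-regression EC50/efficacy; ≥3 independent runs, PTH (1-34) control each.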
In general terms: Reporter assays use an easily measured gene product as a stand-in for the process of interest.

A further experiment has as its target T2, human PTH-2 receptor (Homo sapiens, UniProt P49190).
T2 construct: expressed in transfected cells
Kind of experiment: Luciferase-based transcriptional reporter gene assay for selectivity. Format: cell-based. How it is done:
Agonist activity of compounds on the human PTH-1 receptor was determined in a reporter gene assay by transiently transfecting HEK-293 cells with plasmids encoding human PTH-1 receptor under control of the SV40 promoter and a luciferase reporter gene under control of cAMP responsive elements (CRE). See Himmler et al, J. Recept. Res. 13 (1993) 79-94, for further guidance on this assay. Transfected cells were exposed to serial dilutions of compounds for 4-5 hours followed by lysis of cells, determination of luciferase activity, and determination of compound efficacies and EC50 values through non-linear regression.
PTH (1-34) was used as an internal control in each experiment and compounds were tested in at least three independent experiments. To determine selectivity, compounds were tested in luciferase-based transcriptional reporter gene assays expressing the human PTH-2 receptor.

[1] abbreviates: Table 3, luciferase reporter gene assay, read-out: hPTHR-2 EC50.

Broadly, the EC50 is the concentration needed to bring the measured effect to its halfway point.

T2 sequence (P49190 25-550): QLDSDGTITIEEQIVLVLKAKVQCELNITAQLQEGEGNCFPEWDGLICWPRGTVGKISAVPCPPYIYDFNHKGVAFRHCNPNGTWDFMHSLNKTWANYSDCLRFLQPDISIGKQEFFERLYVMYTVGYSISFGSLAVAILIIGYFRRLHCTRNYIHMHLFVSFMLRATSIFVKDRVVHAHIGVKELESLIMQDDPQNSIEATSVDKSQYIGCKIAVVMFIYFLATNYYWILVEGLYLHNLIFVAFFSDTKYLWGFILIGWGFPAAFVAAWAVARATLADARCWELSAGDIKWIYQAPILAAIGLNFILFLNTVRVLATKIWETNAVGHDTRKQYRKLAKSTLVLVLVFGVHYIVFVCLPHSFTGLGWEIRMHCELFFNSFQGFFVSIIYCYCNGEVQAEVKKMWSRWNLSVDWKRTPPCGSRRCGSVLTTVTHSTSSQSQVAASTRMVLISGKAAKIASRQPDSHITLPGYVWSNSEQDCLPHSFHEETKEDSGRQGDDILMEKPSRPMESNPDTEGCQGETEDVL

As for `CCCC[C@H](NC(=O)CCNC(=O)[C@H](CC(N)=O)NC(=O)[C@H](CC(C)C)NC(=O)[C@H](Cc1c[nH]cn1)NC(=O)[C@H](CCCCN)NC(=O)CNC(=O)[C@H](CC(C)C)NC(=O)[C@H](CC(N)=O)NC(=O)[C@H](Cc1c[nH]cn1)NC(=O)[C@H](CCCC)NC(=O)[C@H](CC(C)C)NC(=O)[C@H](CCC(N)=O)NC(=O)[C@@H](NC(=O)[C@H](CCC(=O)O)NC(=O)[C@H](CO)NC(=O)[C@@H](NC(=O)C(C)(C)N)C(C)C)[C@@H](C)CC)C(=O)N[C@@H](CCC(=O)O)C(=O)N[C@@H](CCCNC(=N)N)C(=O)N[C@H](C(=O)N[C@@H](CCC(=O)O)C(=O)N[C@@H](Cc1cccc2ccccc12)C(=O)N[C@@H](CC(C)C)C(=O)N[C@@H](CCCNC(=N)N)C(=O)N[C@@H](CCCCN)C(=O)N[C@@H](CC(C)C)C(=O)N[C@@H](CC(C)C)C(=O)N[C@@H](CCC(N)=O)C(=O)N[C@@H](CC(=O)O)C(=O)N[C@H](C(=O)N[C@@H](Cc1c[nH]cn1)C(=O)N[C@@H](CC(N)=O)C(=O)N[C@@H](Cc1ccccc1)C(N)=O)C(C)C)C(C)C` [SEQ ID NO: 2, [Aib^1, Nle^8,18, β-Ala^17,1-Nal^23, Leu^27] hPTH (1-34)-NH2] (H-[Aib]VSEIQL[Nle]HNLGKHLN[βAla][Nle]ERVE[1Nal]LRKLLQDVHNF-NH2), at human PTH-1 receptor, a half-maximal response (EC50) required 0.06 nM and the “Selectivity hPTHR-2/hPTHR-1” value turned out to be 566. Further, the hPTHR-2/hPTHR-1 on human PTH-1 receptor (Table 3) is reported as 566. The molecule also yielded an EC50 at human PTH-2 receptor of 31 nM.

With `CCCC[C@H](NC(=O)[C@H](CC(C)C)NC(=O)[C@H](CCC(N)=O)NC(=O)[C@@H](NC(=O)[C@H](CCC(=O)O)NC(=O)[C@H](CO)NC(=O)[C@@H](NC(=O)C(C)(C)N)C(C)C)[C@@H](C)CC)C(=O)N[C@@H](Cc1c[nH]cn1)C(=O)N[C@@H](CC(N)=O)C(=O)N[C@@H](CC(C)C)C(=O)NCC(=O)N[C@@H](CCCCN)C(=O)N[C@@H](Cc1c[nH]cn1)C(=O)N[C@@H](CC(C)C)C(=O)N[C@@H](CC(N)=O)C(=O)N[C@@H](CO)C(=O)N[C@H](CC(=O)N[C@@H](CCC(=O)O)C(=O)N[C@@H](CCCNC(=N)N)C(=O)N[C@H](C(=O)N[C@@H](CCC(=O)O)C(=O)N[C@@H](Cc1cccc2ccccc12)C(=O)N[C@@H](CC(C)C)C(=O)N[C@@H](CCCNC(=N)N)C(=O)N[C@@H](CCCCN)C(=O)N[C@@H](CC(C)C)C(=O)N[C@@H](CC(C)C)C(=O)N[C@@H](CCC(N)=O)C(=O)N[C@@H](CC(=O)O)C(=O)N[C@H](C(N)=O)C(C)C)C(C)C)[C@@H](C)CC` [SEQ ID NO: 5, [Aib^1, Nle^8, β-hIle^18,1-Nal^23, Leu^27] hPTH (1-31)-NH2] (H-[Aib]VSEIQL[Nle]HNLGKHLNS[β3hI]ERVE[1Nal]LRKLLQDV-NH2), the EC50 on human PTH-1 receptor was 0.05 nM; at human PTH-2 receptor, 18 nM. The hPTHR-2/hPTHR-1 at human PTH-1 receptor (Table 3) turned out to be 387. Moreover, the “Selectivity hPTHR-2/hPTHR-1” value on human PTH-1 receptor is reported as 387.

Turning to `CCCC[C@H](NC(=O)CCNC(=O)[C@H](CCCCN)NC(=O)[C@H](CC(C)C)NC(=O)[C@H](Cc1c[nH]cn1)NC(=O)[C@H](CCCCN)NC(=O)CNC(=O)[C@H](CC(C)C)NC(=O)[C@H](CO)NC(=O)[C@H](Cc1c[nH]cn1)NC(=O)[C@H](CCCC)NC(=O)[C@H](CC(C)C)NC(=O)[C@H](CCC(N)=O)NC(=O)[C@@H](NC(=O)[C@H](CCC(=O)O)NC(=O)[C@H](CO)NC(=O)[C@@H](NC(=O)C(C)(C)N)C(C)C)[C@@H](C)CC)C(=O)N[C@@H](CCC(=O)O)C(=O)N[C@@H](CCCNC(=N)N)C(=O)N[C@H](C(=O)N[C@@H](CCC(=O)O)C(=O)N[C@@H](Cc1cccc2ccccc12)C(=O)N[C@@H](CC(C)C)C(=O)N[C@@H](CCCNC(=N)N)C(=O)N[C@@H](CCCCN)C(=O)N[C@@H](CC(C)C)C(=O)N[C@@H](CC(C)C)C(=O)N[C@@H](CCC(N)=O)C(=O)N[C@@H](CCCNC(=N)N)C(=O)N[C@H](C(=O)N[C@@H](Cc1c[nH]cn1)C(=O)N[C@@H](CCC(=O)O)C(=O)N[C@@H](CCC(=O)O)C(N)=O)C(C)C)C(C)C` [SEQ ID NO: 6, [Aib^1, Nle^8,18, Ser^10, Lys^16, β-Ala^17,1-Nal^23, Leu^27, Arg^30, Glu^33, Glu^34] hPTH (1-34)-NH2] (H-[Aib]VSEIQL[Nle]HSLGKHLK[βAla][Nle]ERVE[1Nal]LRKLLQRVHEE-NH2; N-terminus assumed), the EC50 on human PTH-1 receptor stood at 0.03 nM; at human PTH-2 receptor, 7 nM. The hPTHR-2/hPTHR-1 at human PTH-1 receptor (Table 3) is listed as 267.

For the molecule `CCCC[C@H](NC(=O)[C@H](CO)NC(=O)[C@H](CC(N)=O)NC(=O)[C@H](CC(C)C)NC(=O)[C@H](Cc1c[nH]cn1)NC(=O)[C@H](CCCCN)NC(=O)CNC(=O)[C@H](CC(C)C)NC(=O)[C@H](CC(N)=O)NC(=O)[C@H](Cc1c[nH]cn1)NC(=O)[C@H](CCCC)NC(=O)[C@H](CC(C)C)NC(=O)[C@H](CCC(N)=O)NC(=O)[C@@H](NC(=O)[C@H](CCC(=O)O)NC(=O)[C@H](CO)NC(=O)[C@@H](NC(=O)[C@@H](N)CO)C(C)C)[C@@H](C)CC)C(=O)NCCC(=O)N[C@@H](CCCNC(=N)N)C(=O)N[C@H](C(=O)N[C@@H](CCC(=O)O)C(=O)N[C@@H](Cc1cccc2ccccc12)C(=O)N[C@@H](CC(C)C)C(=O)N[C@@H](CCCNC(=N)N)C(=O)N[C@@H](CCCCN)C(=O)N[C@@H](CC(C)C)C(=O)N[C@@H](CC(C)C)C(=O)N[C@@H](CCC(N)=O)C(=O)N[C@@H](CC(=O)O)C(=O)N[C@H](C(=O)N[C@@H](Cc1c[nH]cn1)C(=O)N[C@@H](CC(N)=O)C(=O)N[C@@H](Cc1ccccc1)C(N)=O)C(C)C)C(C)C` [SEQ ID NO: 11, [Nle^8,18, β-Ala^19,1-Nal^23, Leu^27] hPTH-(1-34)-NH2] (H-SVSEIQL[Nle]HNLGKHLNS[Nle][βAla]RVE[1Nal]LRKLLQDVHNF-NH2; N-terminus assumed), the hPTHR-2/hPTHR-1 on human PTH-1 receptor (Table 3) worked out at 69. Also, on human PTH-2 receptor (setting [1]), the 50% effective concentration (EC50) was 18 nM.

Consider `CCCC[C@H](NC(=O)CCNC(=O)[C@H](CC(N)=O)NC(=O)[C@H](CC(C)C)NC(=O)[C@H](Cc1c[nH]cn1)NC(=O)[C@H](CCCCN)NC(=O)CNC(=O)[C@H](CC(C)C)NC(=O)[C@H](CC(N)=O)NC(=O)[C@H](Cc1c[nH]cn1)NC(=O)[C@H](CCCC)NC(=O)[C@H](CC(C)C)NC(=O)[C@H](CCC(N)=O)NC(=O)[C@@H](NC(=O)[C@H](CCC(=O)O)NC(=O)[C@H](CO)NC(=O)[C@@H](NC(=O)C(C)(C)N)C(C)C)[C@@H](C)CC)C(=O)N[C@@H](CCC(=O)O)C(=O)N[C@@H](CCCNC(=N)N)C(=O)N[C@H](C(=O)N[C@@H](CCC(=O)O)C(=O)N[C@@H](Cc1ccc2ccccc2c1)C(=O)N[C@@H](CC(C)C)C(=O)N[C@@H](CCCNC(=N)N)C(=O)N[C@@H](CCCCN)C(=O)N[C@@H](CCCCN)C(=O)N[C@@H](CC(C)C)C(=O)N[C@@H](CCC(N)=O)C(=O)N[C@@H](CC(=O)O)C(=O)N[C@H](C(=O)N[C@@H](Cc1c[nH]cn1)C(=O)N[C@@H](CC(N)=O)C(=O)N[C@@H](Cc1ccccc1)C(N)=O)C(C)C)C(C)C` [SEQ ID NO: 13, [Aib^1, Nle^8,18, β-Ala^17,2-Nal^23] hPTH (1-34)-NH2] (H-[Aib]VSEIQL[Nle]HNLGKHLN[βAla][Nle]ERVE[2Nal]LRKKLQDVHNF-NH2; N-terminus assumed), for which the EC50 at human PTH-1 receptor (Table 3, HEK-293 cells, CRE-luciferase, 4-5 hours exposure, read-out: hPTHR-1 EC50) is 0.22 nM; at human PTH-2 receptor (setting [1]), 46 nM. For the same molecule, the hPTHR-2/hPTHR-1 on human PTH-1 receptor (Table 3) was found to be 213.
